Series [1] in a line: Inhibition of HCV 1a NS3/4A protease preincubated for 45 mins in presence of compound. Details: species or system Hepatitis C virus subtype 1a.
In series [2] the target is T1, Cytochrome P450 3A4 (Homo sapiens, UniProt P08684). The series is described as follows: Inhibition of human CYP3A4 in human pooled liver microsomes in presence of testosterone as substrate preincubated for 30 mins in presence of NADPH followed by addition of substrate by LC-MS/MS analysis. Format: ADME.
T1 sequence (P08684 whole entry): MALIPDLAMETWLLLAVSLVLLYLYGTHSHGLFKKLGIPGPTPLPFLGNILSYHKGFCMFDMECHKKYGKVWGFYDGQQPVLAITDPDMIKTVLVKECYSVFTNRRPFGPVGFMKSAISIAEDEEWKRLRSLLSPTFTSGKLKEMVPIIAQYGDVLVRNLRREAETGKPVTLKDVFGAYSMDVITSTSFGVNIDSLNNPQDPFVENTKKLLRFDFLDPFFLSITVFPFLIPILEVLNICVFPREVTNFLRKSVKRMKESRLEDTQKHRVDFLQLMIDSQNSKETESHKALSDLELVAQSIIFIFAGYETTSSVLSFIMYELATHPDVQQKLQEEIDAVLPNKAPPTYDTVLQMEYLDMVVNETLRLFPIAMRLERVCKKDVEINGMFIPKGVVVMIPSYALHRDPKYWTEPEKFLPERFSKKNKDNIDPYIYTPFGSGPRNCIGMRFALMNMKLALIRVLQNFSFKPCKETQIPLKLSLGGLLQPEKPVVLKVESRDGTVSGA
Series [3] can be described thus: Inhibition of HCV 6a NS3/4A protease. Details: species or system Hepatitis C virus subtype 6a.
Series [4] can be described thus: Inhibition of HCV 4a NS3/4A protease preincubated for 45 mins in presence of compound. Details: species or system Hepatitis C virus subtype 4a.
A short description of series [5]: Selectivity index, ratio of IC50 for inhibition of HCV 5a NS3/4A protease to IC50 for inhibition of HCV 5a NS3/4A protease preincubated for 45 mins in presence of compound.
A short description of series [6]: AUC in dog at 3 mg/kg, po or 1 mg/kg, iv. The format is ADME, organism-based, Canis lupus familiaris. The arrangement: dose 3 mg/kg. The following applies: in vivo.
Series [7] can be described thus: Drug concentration in rat liver at 5 mg/kg, po measured upto 24 hrs. Format: ADME, organism-based. The conditions noted are these: read-out: Ct.
Series [8] can be described thus: Oral bioavailability in rat at 5 mg/kg. The following applies: in vivo. Format: ADME, organism-based.
Series [9] in a line: Clearance in dog at 3 mg/kg, po or 1 mg/kg, iv. The format is ADME, organism-based, Canis lupus familiaris. The following applies: in vivo.
Series [10] is described as follows: Ratio of drug concentration in liver to plasma in rat at 5 mg/kg, po measured upto 24 hrs. The conditions noted are these: liver and plasma. Format: ADME, organism-based.
The target of series [11] is T1, Cytochrome P450 3A4. The series is described as follows: Inhibition of human CYP3A4 in human pooled liver microsomes at 0.002 to 40 uM in presence of testosterone as substrate preincubated in presence of NADPH followed by addition of substrate by LC-MS/MS analysis. Format: ADME. The conditions noted are these: TDE = time-dependent effect, dose 0.002-40 µM, time <=30 min. (Liver microsomes are a subcellular fraction often used to study metabolism.)

Series [12] deals with T1, Cytochrome P450 3A4. Nature of the series: Inhibition of human CYP3A4 in human pooled liver microsomes at 0.002 to 40 uM in presence of midazolam as substrate preincubated in presence of NADPH followed by addition of substrate by LC-MS/MS analysis. The format is ADME. The following applies: TDE = time-dependent effect, dose 0.002-40 µM, time <=30 min.
Series [13] in a line: Selectivity index, ratio of IC50 for inhibition of HCV 2a NS3/4A protease to IC50 for inhibition of HCV 2a NS3/4A protease preincubated for 45 mins in presence of compound.
Series [14] is described as follows: AUC in rat at 5 mg/kg, po or 1 mg/kg, iv. The conditions noted are these: in vivo. Format: ADME, organism-based. The arrangement: dose 5 mg/kg.

The values that follow come from ChEMBL document CHEMBL4765464, “Discovery of BMS-986144, a Third-Generation, Pan-Genotype NS3/4A Protease Inhibitor for the Treatment of Hepatitis C Virus Infection” (J Med Chem, 2020).

The IC50 is the point on the concentration scale where inhibition reaches its midpoint. Usually AUC stands for concentration integrated over time. By bioavailability is commonly meant the share of a dose that reaches the circulation, judged against a reference dose that is usually intravenous. As a reminder, the Kp is tissue or fluid exposure divided by exposure in the circulation. As to `CC[C@@H]1C[C@H](C)CC/C=C\[C@@H]2C[C@@]2(C(=O)NS(=O)(=O)C2(C)CC2)NC(=O)[C@@H]2C[C@@H](Oc3nccc4cc(OC)c(F)cc34)CN2C(=O)[C@H]1NC(=O)OC(C)(C)C(F)(F)F`, the IC50 in series [1] was determined as 0.2 nM; in series [2], 3020 nM; in series [3], 0.7 nM; in series [4], 0.1 nM. The results for the Selectivity Index in series [5] and in [13] were 10 and 3.5, respectively. For the same compound, the results for the AUC in series [6] and in series [14] were 81 µM·h and 241 µM·h, respectively. For the same compound, the concentration at 24 h in series [7] turned out to be 5.83 µM. In series [8], this compound came in with a bioavailability of 50%. Further, the clearance in [9] was 0.3 mL/min/kg. Besides, in series [10], the Kp at 24 h stood at 1.5. The “inhibition (INH)” value in [11] and in series [12] was “Tde” in each case.
